Experiment [1] has as its target T1, human NK3 receptor (Homo sapiens, UniProt P29371).
T1 construct: expressed in transfected cells; membrane preparation
T1 sequence (P29371 1-465): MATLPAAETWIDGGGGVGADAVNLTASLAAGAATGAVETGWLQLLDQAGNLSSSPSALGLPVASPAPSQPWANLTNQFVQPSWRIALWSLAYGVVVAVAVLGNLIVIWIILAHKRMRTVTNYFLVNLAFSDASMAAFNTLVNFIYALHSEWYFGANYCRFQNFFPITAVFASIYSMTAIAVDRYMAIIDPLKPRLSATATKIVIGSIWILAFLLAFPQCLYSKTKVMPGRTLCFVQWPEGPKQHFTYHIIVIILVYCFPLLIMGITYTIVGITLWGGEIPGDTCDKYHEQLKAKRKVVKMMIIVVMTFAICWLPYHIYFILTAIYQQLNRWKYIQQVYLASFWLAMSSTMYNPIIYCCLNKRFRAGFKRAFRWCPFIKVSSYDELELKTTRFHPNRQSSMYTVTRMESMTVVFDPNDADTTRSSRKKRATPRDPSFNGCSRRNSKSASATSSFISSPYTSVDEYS
Put plainly: NK3 receptor efficacy and potency assay (FLIPR Calcium 4, BHK cells). The class given is cell-based. Conditions: read-out: Potency cIC50. As to the method:
BHK cells stably expressing the human NK3 receptor were seeded in 100 μl media in black walled clear-base 96-wells plates (Costar) aiming at a confluency of 95-100% at the day of assay. The assay was performed according to the FLIPR Calcium 4 Assay kit (Molecular Devices). At the day of the assay, the media was removed and the cells were washed once with the HBSS buffer (Hanks BSS buffer, pH 7.4 containing 20 mM Hepes) before 100 μl of a solution of the calcium assay reagent dissolved in the HBSS buffer containing 2.5 mM probinicid was added to the cells. The plates were incubated for 60 min at 34° C., 10% CO2 before use in the FLIPR for examination of fluorescence.
For efficacy and potency evaluation of compounds, these were diluted in HBSS buffer prior to test. For test of agonist activity, 25 μl of the diluted compound solution was added and the plate was analyzed for 5 minutes in the FLIPR. […] The plates were subsequently analyzed for 5 minutes before the assay was terminated. The maximal increase in fluorescence over background following each ligand addition was determined.

Experiment [2] has as its target T1, human NK3 receptor. Put plainly: NK3 receptor binding assay (SPA-based competition binding, 125I-NKB). To be noted: table of Example 10; obtained as described in Example 9; read-out: Affinity Ki. As to the method:
Membranepreparation: BHK cells stably expressing the human NK3 receptor were seeded in harvesting plates in Dulbeccos MEM containing GlutaMax (862 mg/l), 1 mM sodium pyruvate, 10% fetal calf serum, 1% Pen/Strep, 1 mg/ml G418 and were grown at 34° C. in a humidified atmosphere containing 10% CO2. To increase receptor expression, 10 μM trichotatin A was added to the media 24 hours before harvest of the cells at a confluency of app 90%. Prior to the harvesting, the cells were washed twice with PBS without Mg^2+ or Ca^2+ and subsequently scrapped of in 10 ml PBS pr harvesting plate. The cells suspension were centrifuged at 1500×G in three minutes before resuspension in 15 mM Tris-HCl pH 7.5 buffer containing 2 mM MgCl2; 0.3 mM EDTA and 1 mM EGTA (buffer A). The cell suspension was homogenised and subsequently centrifuged at 4000×G in 30 minutes. The membrane-pellet was resuspended in buffer A containing 250 mM sucrose, aliquoted and stored at −80° C.
Affinity assay description: The assay was performed as a SPA-based competition-binding assay in a 50 mM Tris pH 7.4 assay buffer containing 120 mM NaCl, 3 mM MnCl2, 40 μg/ml bacitracin, 2 μg/ml Chymostatin, 1 μg/ml Phosphoramidon and 4 μg/ml Leupeptin. […] The assay plate was subsequently under agitation incubated for 90 min at RT. The plate was centrifugated 10 minutes at 500×G and counted in a topcounter 5 minutes pr well.

For experiment [3] the following is noted: cited from earlier work.

A word on the Ki: it is a dissociation constant, usually derived from enzyme kinetics or from competition with a known ligand. Turning to `CC[C@H](NC(=O)c1c(CN2CC(C)OC(C)C2)n(-c2ccccc2)c(=O)c2ccccc12)c1ccccc1` (stereo partly drawn) [Example 2s, 3-(2,6-Dimethyl-morpholin-4-ylmethyl)-1-oxo-2-phenyl-1,2-dihydro-isoquinoline-4-carboxylic acid ((S)-1-phenyl-propyl)-amide], the IC50 on human NK3 receptor [1] came out at 340 nM. The Ki on human NK3 receptor [2] came to 200 nM.

As for `CC[C@H](NC(=O)c1c(CN2Cc3ccccc3C2)n(-c2ccccc2)c(=O)c2ccccc12)c1ccccc1` [Example 2bn, 3-(1,3-Dihydro-isoindol-2-ylmethyl)-1-oxo-2-phenyl-1,2-dihydro-isoquinoline-4-carboxylic acid ((S)-1-phenyl-propyl)-amide], on human NK3 receptor [1], the IC50 turned out to be 300 nM. In addition, the Ki at human NK3 receptor [2] is 160 nM.

`CC(=O)N(C)C1(c2ccccc2)CCN(CCC[C@]2(c3ccc(Cl)c(Cl)c3)CCCN(C(=O)c3ccccc3)C2)CC1` [Osanetant, osanetant]: the “effect in clinical trials versus placebo” value in experiment [3] (in particular on positive symptoms of psychosis) is “superior to placebo”.

As for `CC[C@H](NC(=O)c1c(O)c(-c2ccccc2)nc2ccccc12)c1ccccc1` [talnetant], in experiment [3] (schizophrenics), the “effect on cognitive behaviour in clinical trials” value is recorded as “ameliorate the cognitive behaviour of schizophrenics”.

`CC[C@H](NC(=O)c1c(CN2CCCNCC2)n(-c2ccccc2)c(=O)c2ccccc12)c1ccccc1` [Example 2cz, 3-[1,4]Diazepan-1-ylmethyl-1-oxo-2-phenyl-1,2-dihydro-isoquinoline-4-carboxylic acid ((S)-1-phenyl-propyl)-amide]: on human NK3 receptor [1], the IC50 turned out to be 49 nM. The inhibition constant (Ki) at human NK3 receptor [2] was 76 nM.

Take `CC[C@H](NC(=O)c1c(CN2CCc3ccccc3C2)n(-c2ccccc2)c(=O)c2ccccc12)c1ccccc1` [Example 2bg, 3-(3,4-Dihydro-1H-isoquinolin-2-ylmethyl)-1-oxo-2-phenyl-1,2-dihydro-isoquinoline-4-carboxylic acid ((S)-1-phenyl-propyl)-amide]: the IC50 on human NK3 receptor [1] turned out to be 220 nM. Moreover, the inhibitory constant (Ki) on human NK3 receptor [2] was determined as 160 nM.

With `CC[C@H](NC(=O)c1c(CN2CCOCC2)n(-c2ccccc2)c(=O)c2ccccc12)c1ccccc1` [Example 2r, 3-Morpholin-4-ylmethyl-1-oxo-2-phenyl-1,2-dihydro-isoquinoline-4-carboxylic acid ((S)-1-phenyl-propyl)-amide], at human NK3 receptor [1], the IC50 was determined as 420 nM. The Ki on human NK3 receptor [2] turned out to be 320 nM.

Values taken from patent publication US8173639B2, “Isoquinolinone derivatives as NK3 antagonists” (H. Lundbeck A/S, priority 2007, dated 2012).
